Test results published in paper PMC3179504 (PLoS ONE, 2011).
“Also recorded” adds a separate entry of the source.

How the values were obtained:
T cells = settings: ref [26]; cited from earlier work
Text: (§1) It has been shown that Rho GTPases are regulated by microtubule dynamics. […] One of the major intracellular signaling molecules involved in the regulation of tubulin function is p21- activated kinase 1 (PAK), which interacts with a variety of other proteins ...

RhoA = settings: microtubule depolymerizing reagent; ref [24], [25]; cited from earlier work
Text: as §1

HEK293-NK1R cells = assay: SP-induced membrane blebbing in HEK293-NK1R cells (phase-contrast / DIC / confocal microscopy); assay type: cell-based; settings: for effect of colchicine on SP-induced blebbing: colchicine pretreatment
[1] = tested on: myosin light chain 2 (MLC2) (Ser19); assay type: cell-based, human
Protocol: Cells were lysed in lithium dodecyl sulfate (LDS) sample buffer (Invitrogen, Carlsbad, CA), and lysed using a sonic dismembrator model 100 (Fisher Scientific, Hampton, NH). Cell extracts were subjected to LDS polyacrylamide gel electrophoresis and transferred to polyvinylidene difluoride membranes. After blocking with 5% nonfat dry milk in 0.1% Tween 20/TBS, membranes were incubated with the primary antibody. […] The following non phospho-specific antibodies were used: Beta-Actin and PAK1/2/3 (Cell Signaling Technology, Beverly, MA). Secondary antibodies conjugated to horseradish peroxidase were either anti-rabbit (Biorad, Hercules, CA), or anti-mouse (Cell Signaling Technology, Beverly, MA). Bands were visualized by enhanced chemiluminescence using SuperSignal® West Pico Chemiluminescent Substrate (Thermo Scientific, Rockford, IL) on a VersaDoc Imager (BioRad, Hercules, CA).

Q: Which “effect of nocodazole on T cell migratory phenotype” value (T cells) does the source give for `COC(=O)Nc1nc2ccc(C(=O)c3cccs3)cc2[nH]1` [Nocodazole] here?
A: converts T cells from the classical lamellipodial/uropod migratory phenotype to a blebbing migratory phenotype

Q: What about the “RhoA activation by nocodazole” value (RhoA) of the same molecule?
A: induces RhoA activation

Q: Which “cell morphology after colchicine” value (HEK293-NK1R cells; colchicine) does the source give for `COc1cc2c(c(OC)c1OC)-c1ccc(OC)c(=O)cc1[C@@H](NC(C)=O)CC2` [colchicine] here?
A: causing the cells to appear less adherent and to round up

Q: And the “effect of colchicine on SP-induced blebbing” value (HEK293-NK1R cells)?
A: not able to block the SP-induced blebbing

Q: What about the “effect of colchicine on SP-induced blebbing” value (HEK293-NK1R cells; listed as Colchicine) of the same molecule?
A: unable to block bleb formation

Q: With `Oc1ccc2ccccc2c1SSc1c(O)ccc2ccccc12` [IPA3, 1, 1′-Dithiodi-2-naphthtol] as the molecule, how does the “effect of IPA3 on SP-induced blebbing” value (HEK293-NK1R cells; IPA3 pretreatment, phase-contrast) read?
A: not in HEK293 cells; also recorded: no effect on HEK293- NK1R cell's ability to bleb

Q: For C3 transferase, which “effect of C3 transferase on MLC phosphorylation” value [1] is on record?
A: decrease in MLC phosphorylation
